Results: PubChem BioAssay AID248 (DTP/NCI, 2004)
Values joined by “and” are separate entries in the source; they are usually repeats but may differ in a detail not shown here. Identical values can stand only once. Toxic doses and inconclusive results are not listed. Rule as the data show it: active = T/C of 150% or more; inactive = T/C below 125%.

System: L1210 leukemia ip in BDF1 mice, survival T/C
Assay: NCI In Vivo Anticancer Drug Screen. Data for tumor model L1210 Leukemia (intraperitoneal) in B6D2F1 (BDF1) mice
Conditions: endpoint: mean survival time, higher = longer survival
Procedure, shortened: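 Read-out is survival time, reported as the treated-group measurement over the vehicle-control measurement.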

[1] = dose: 25.0 mg/kg/injection, schedule: Q04DX003 (ip), vehicle: saline with Tween-80
[2] = dose: 50.0 mg/kg/injection, schedule: Q04DX003 (ip), vehicle: saline with Tween-80
[3] = dose: 100.0 mg/kg/injection, schedule: Q04DX003 (ip), vehicle: saline with Tween-80
[4] = dose: 100.0 mg/kg/injection, schedule: Q01DX009 (ip), vehicle: saline with Tween-80
[5] = dose: 200.0 mg/kg/injection, schedule: Q01DX009 (ip), vehicle: saline with Tween-80
[6] = dose: 200.0 mg/kg/injection, schedule: Q04DX003 (ip), vehicle: saline with Tween-80
[7] = dose: 400.0 mg/kg/injection, schedule: Q01DX009 (ip), vehicle: saline with Tween-80
[8] = dose: 400.0 mg/kg/injection, schedule: Q04DX003 (ip), vehicle: saline with Tween-80
[9] = dose: 50.0 mg/kg/injection, schedule: Q01DX001 (ip), vehicle: saline
[10] = dose: 100.0 mg/kg/injection, schedule: Q01DX001 (ip), vehicle: saline
[11] = dose: 200.0 mg/kg/injection, schedule: Q01DX001 (ip), vehicle: saline
[12] = dose: 400.0 mg/kg/injection, schedule: Q01DX001 (ip), vehicle: saline
[13] = dose: 100.0 mg/kg/injection, schedule: Q04DX003 (ip), vehicle: Klucel (hydroxypropylcellulose) (HPC)
[14] = dose: 200.0 mg/kg/injection, schedule: Q04DX003 (ip), vehicle: Klucel (hydroxypropylcellulose) (HPC)
[15] = dose: 12.5 mg/kg/injection, schedule: Q04DX002 (ip), vehicle: Klucel (hydroxypropylcellulose) (HPC)
[16] = dose: 25.0 mg/kg/injection, schedule: Q04DX002 (ip), vehicle: Klucel (hydroxypropylcellulose) (HPC)

Measured: T/C

CCCCn1nnc2c(NN)nc(N)nc21
inactive: dose: 25.0 mg/kg/injection, schedule: Q01DX009 (ip), vehicle: saline with Tween-80 102 % of control | [1] 100 % of control | dose: 50.0 mg/kg/injection, schedule: Q01DX009 (ip), vehicle: saline with Tween-80 101 % of control | [2] 94 % of control | [3] 100 % of control

COc1cc(C2=N/C(=C\c3cc(Cl)cc(Cl)c3O)C(=O)O2)cc(OC)c1OC
inactive: dose: 100.0 mg/kg/injection, schedule: Q04DX002 (ip), vehicle: Klucel (hydroxypropylcellulose) (HPC) 107 % of control | dose: 200.0 mg/kg/injection, schedule: Q04DX002 (ip), vehicle: Klucel (hydroxypropylcellulose) (HPC) 110 % of control | dose: 400.0 mg/kg/injection, schedule: Q04DX002 (ip), vehicle: Klucel (hydroxypropylcellulose) (HPC) 100 % of control

COc1cc2c(cc1C(C)C)CCC1C(C)(C#N)CCCC21C (stereo unspecified)
inactive: [4] 96 % of control | [3] 100 % of control | [5] 89 % of control | [6] 96 % of control | [7] 92 % of control | [8] 100 % of control

CCOc1ccc2nc(S(N)(=O)=O)sc2c1
inactive: dose: 100.0 mg/kg/injection, schedule: Q01DX Z (ip), vehicle: saline 100 % of control | dose: 200.0 mg/kg/injection, schedule: Q01DX Z (ip), vehicle: saline 97 % of control | dose: 400.0 mg/kg/injection, schedule: Q01DX Z (ip), vehicle: saline 111 % of control

Cc1ccccc1NP1(=O)OCCCN1Cc1ccc(Cl)cc1 (stereo unspecified)
inactive: [9] 106 % of control | [10] 102 % of control | [11] 106 % of control | [12] 100 % of control

CCCC1=NNc2n[nH]c(=S)n2N1
inactive: dose: 12.5 mg/kg/injection, schedule: Q01DX009 (ip), vehicle: Klucel (hydroxypropylcellulose) (HPC) 93 % of control | dose: 25.0 mg/kg/injection, schedule: Q01DX009 (ip), vehicle: Klucel (hydroxypropylcellulose) (HPC) 90 % of control | dose: 50.0 mg/kg/injection, schedule: Q01DX009 (ip), vehicle: Klucel (hydroxypropylcellulose) (HPC) 98 % of control | [13] 100 % of control | [14] 96 % of control

CC(=O)N(O)CCCC1NC(=O)C(CCCN(O)C(C)=O)NC1=O (stereo unspecified)
inactive: [10] 97 % of control | [4] 100 % of control | [3] 92 % of control | [11] 95 % of control | [5] 102 % of control | [6] 92 % of control | [12] 95 % of control | [7] 105 % of control | [8] 100 % of control

O=C(COc1ccccc1[N+](=O)[O-])Nc1cccnc1
inactive: [3] 104 % of control | [6] 98 % of control | [8] 98 % of control

O=P(c1ccccc1)(c1ccccc1)c1ccccc1
inactive: [9] 102 % of control | [10] 98 % of control | [11] 98 % of control

O=C(c1ccccc1)C1C(c2ccccc2)N1C(=O)c1ccc([N+](=O)[O-])cc1 (stereo unspecified)
inactive: dose: 75.0 mg/kg/injection, schedule: Q01DX001 (ip), vehicle: saline with Tween-80 96 % of control | dose: 150.0 mg/kg/injection, schedule: Q01DX001 (ip), vehicle: saline with Tween-80 86 % of control | dose: 300.0 mg/kg/injection, schedule: Q01DX001 (ip), vehicle: saline with Tween-80 91 % of control

CCCCCCCCCCCCOc1ccc(C2(c3ccc(CCCCCCCCCCCC)cc3)CCCCC2)cc1
inactive: dose: 100.0 mg/kg/injection, schedule: Q01DX001 (ip), vehicle: Klucel (hydroxypropylcellulose) (HPC) 101 % of control | dose: 200.0 mg/kg/injection, schedule: Q01DX001 (ip), vehicle: Klucel (hydroxypropylcellulose) (HPC) 101 % of control | dose: 400.0 mg/kg/injection, schedule: Q01DX001 (ip), vehicle: Klucel (hydroxypropylcellulose) (HPC) 106 % of control

Clc1nn2nnnc2c2ccccc12
inactive: dose: 6.25 mg/kg/injection, schedule: Q04DX002 (ip), vehicle: Klucel (hydroxypropylcellulose) (HPC) 93 % of control | [15] 93 % of control | [16] 96 % of control | [1] 98 % of control | [2] 101 % of control | [3] 98 % of control

O=C(CI)Nc1cccc(NC(=O)C(=O)O)c1
inactive: dose: 20.0 mg/kg/injection, schedule: Q04DX003 (ip), vehicle: Klucel (hydroxypropylcellulose) (HPC) 95 % of control | dose: 40.0 mg/kg/injection, schedule: Q04DX003 (ip), vehicle: Klucel (hydroxypropylcellulose) (HPC) 101 % of control

N#CC(=C1C=CC(=NO)C=C1)c1ccc(Cl)cc1
inactive: [4] 97 % of control | [3] 96 % of control | [5] 100 % of control | [6] 107 % of control | [7] 103 % of control | [8] 91 % of control

c1nc2c([nH]1)CCCCC2
inactive: dose: 12.5 mg/kg/injection, schedule: Q01DX001 (ip), vehicle: saline with Tween-80 100 % of control | dose: 25.0 mg/kg/injection, schedule: Q01DX001 (ip), vehicle: saline with Tween-80 97 % of control | dose: 25.0 mg/kg/injection, schedule: Q01DX009 (ip), vehicle: other 104 % of control and 106 % of control | dose: 25.0 mg/kg/injection, schedule: Q04DX002 (ip), vehicle: other 99 % of control and 110 % of control | dose: 50.0 mg/kg/injection, schedule: Q01DX001 (ip), vehicle: saline with Tween-80 100 % of control | dose: 50.0 mg/kg/injection, schedule: Q01DX009 (ip), vehicle: other 101 % of control and 88 % of control | dose: 50.0 mg/kg/injection, schedule: Q04DX002 (ip), vehicle: other 105 % of control and 113 % of control | dose: 100.0 mg/kg/injection, schedule: Q04DX002 (ip), vehicle: other 100 % of control and 103 % of control

CN(NC(=O)CC(=O)NN(C)C(=S)c1ccccc1)C(=S)c1ccccc1
inactive: dose: 25.0 mg/kg/injection, schedule: Q01DX009 (ip), vehicle: gum acacia 109 % of control | dose: 50.0 mg/kg/injection, schedule: Q01DX009 (ip), vehicle: gum acacia 104 % of control | dose: 100.0 mg/kg/injection, schedule: Q01DX009 (ip), vehicle: gum acacia 100 % of control and 92 % of control | dose: 100.0 mg/kg/injection, schedule: Q04DX003 (ip), vehicle: gum acacia 90 % of control | dose: 200.0 mg/kg/injection, schedule: Q04DX003 (ip), vehicle: gum acacia 97 % of control | dose: 400.0 mg/kg/injection, schedule: Q04DX003 (ip), vehicle: gum acacia 92 % of control

Cc1cccc2ccc3ccc4ccccc4c3c12
inactive: [3] 96 % of control | [6] 89 % of control | [8] 92 % of control

CC(C)C1(C(=O)O)SCCCS1
inactive: dose: 50.0 mg/kg/injection, schedule: Q04DX003 (ip), vehicle: saline 100 % of control | dose: 100.0 mg/kg/injection, schedule: Q04DX003 (ip), vehicle: saline 110 % of control | dose: 200.0 mg/kg/injection, schedule: Q04DX003 (ip), vehicle: saline 102 % of control | dose: 400.0 mg/kg/injection, schedule: Q04DX003 (ip), vehicle: saline 98 % of control

COc1ccc(Cl)cc1NC(=O)Nc1nccs1
inactive: dose: 100.0 mg/kg/injection, schedule: Q01DX009 (ip), vehicle: Klucel (hydroxypropylcellulose) (HPC) 98 % of control | [13] 101 % of control | dose: 200.0 mg/kg/injection, schedule: Q01DX009 (ip), vehicle: Klucel (hydroxypropylcellulose) (HPC) 92 % of control | [14] 97 % of control | dose: 400.0 mg/kg/injection, schedule: Q04DX003 (ip), vehicle: Klucel (hydroxypropylcellulose) (HPC) 95 % of control

CCOCc1cc(Cc2cc(COCC)c3cccnc3c2O)c(O)c2ncccc12
inactive: dose: 75.0 mg/kg/injection, schedule: Q01DX001 (ip), vehicle: carboxymethylcellulose (CMC) 97 % of control | dose: 150.0 mg/kg/injection, schedule: Q01DX001 (ip), vehicle: carboxymethylcellulose (CMC) 105 % of control | dose: 300.0 mg/kg/injection, schedule: Q01DX001 (ip), vehicle: carboxymethylcellulose (CMC) 103 % of control

CC(=O)[C@H]1CC[C@H]2[C@@H]3C[C@H](C)C4=CC(=O)CC[C@]4(C)[C@@]3(F)[C@@H](O)C[C@]12C
inactive: [15] 102 % of control | [16] 105 % of control | dose: 50.0 mg/kg/injection, schedule: Q04DX002 (ip), vehicle: Klucel (hydroxypropylcellulose) (HPC) 102 % of control | dose: 100.0 mg/kg/injection, schedule: Q04DX003 (ip), vehicle: steriod suspending solution 96 % of control | dose: 200.0 mg/kg/injection, schedule: Q04DX003 (ip), vehicle: steriod suspending solution 105 % of control | dose: 400.0 mg/kg/injection, schedule: Q04DX003 (ip), vehicle: steriod suspending solution 102 % of control
